Reference: patent US10174348B2, “Bacteria engineered for ester production” (priority 2013, dated 2019)
Converted amounts (≈) assume the structure as drawn. Blank lines part the entries; values can stand above or below the compound they belong to.

Assays:
[1] = test system: pyruvate dehydrogenase complex; assay: KDHC activity assay, negative control strain lysate; format: biochemical, E. coli; settings: 25 mM 2-keto acid, 30° C.
Protocol: Cells were grown to an OD600 of ˜0.4 in 5 mL LB medium at 37° C., followed by adding 1 mM IPTG. Protein expression was performed at 30° C. for 2 h. Then 1.8 mL of cells were centrifuged at 16,000×g for 10 min, resuspended in 300 μL BugBuster Protein Extraction Reagent (Novagen), and incubated at room temperature for 20 min for cell lysis. Then samples were centrifuged for 20 min, 16,000×g, at 2° C. The soluble fractions were transferred to chilled 1.5 mL tubes, and the insoluble fractions were suspended in 200 μL BugBuster forming a slurry and kept on ice. KDHC activities were measured by following the conversion of 2-keto acids to acyl-CoA with NAD^+ at 340 nm at 30° C. using a Synergy H1 Hybrid Plate Reader (BioTek Instruments, Inc.). […] Protein concentrations were measured using 5× Advanced Protein Assay Reagent (Cytoskeleton Inc.). […]
To confirm the activity of KDHC, cell lysates from each strain were prepared and activity was tested in vitro with pyruvate, 2-ketovalerate, 2-ketoisovalerate, 3-methylketovalerate, or 4-methylketovalerate as substrate. Activity was measured by detecting the reduction of NAD^+ in the presence of CoA. […]

JCL260 = JCL260 without the acetate assimilating pathway; 10 g/L acetate
Protocol: (§1) Growth of strains in culture medium containing 10 g/L glucose, 10 g/L acetate, or 10 g/L glucose and 10 g/L acetate was compared. Cells were grown at 37° C. on a rotary shaker (250 rpm). Overnight cultures were grown in 3 mL Luria Broth containing appropriate antibiotics. The overnight cultures were inoculated 1% in 5 mL M9 minimal media (containing appropriate antibiotics and 1 mM IPTG) and labeled carbon source in 15-ml screw-cap tubes.
(§2) Next, the growth of JCL260 and AL2045, which contains ΔaceEF with and without the acetate assimilating pathway (ackA-pta), was compared (FIG. 21).

AL2045 = AL2045 with the acetate assimilating pathway (ackA-pta); 10 g/L acetate
Protocol: as §1, §2

[2] = cited from earlier work
[3] = Partitioning between hexadecane layer and culture during production; format: physicochemical; settings: equal volume of hexadecane over the culture
Protocol: Cells were grown in 20 mL media in 250 mL screw-cap flasks at 37° C. until OD600 0.4, then 1 mM IPTG was added. […] Errors are SD (n=3). […] Then 20 mL of culture was transferred to a 250 mL screw-cap flask. […] The strong agitation at which the flask was shaking caused the hexadecane layer to become an emulsion with micelles of culture, but the majority of the culture layer underneath is discernible. The cultures were allowed to produce at 30° C. on a rotary shaker (250 rpm) for 24-96 h. […] For hexadecane layer assisted isobutyl acetate production, the centrifugation of the hexadecane samples separates the aqueous and hexadecane layer into two clear layers. […] The same volume of ethyl acetate (Sigma-Aldrich) as culture was added into the tubes to extract tetradecyl acetate and isobutyl isobutyrate after production at room temperature. These samples were mixed for 1 min and settled for 30 min on ice. The each sample was centrifuged with 20,000×g for 1 min. Then, 1 mL of supernatant was taken for GC analysis.

E. coli JCL260 = assay: Effect of isobutyl acetate on E. coli growth (toxicity experiments); format: cell-based; settings: 3 g L^−1 isobutyl acetate; JCL260, 30° C., M9P with 50 g L^−1 glucose
Protocol: JCL260 was grown at 30° C. in 5 mL M9P media containing 50 g L^−1 glucose in 15 mL screw-cap tubes. Black Arrow indicates the time point when isobutyl acetate: none (light gray), 1 g L^−1 (black), or 3 g L^−1 (dark gray) was added into culture. Error bars are SD (n=3).
This strain produced 4.5-fold more isobutyl acetate (2.7 g L^−1) in the first 24 h compared to JCL260 (FIG. 12b-c). This production represents 60% of the theoretical maximum yield (0.42 g isobutyl acetate/g glucose).

SMILES: CCCC(=O)C(=O)O [2-ketovalerate]
activity of negative control strain with 2-keto acid as substrate [1]: 30 nmol NADH/min/mg protein

SMILES: CC(=O)O [Acetate]
effect of acetate on growth (JCL260): inhibited the growth | effect of acetate on growth (AL2045): enhanced the growth

SMILES: CC(C)COC(=O)C(C)C [Isobutyl isobutyrate, isobutyl isobutyrate]
water solubility [2]: 520 µg/mL (≈ 3.61 mM)

remained in the culture [3]: 86%
SMILES: CC(C)CO [isobutanol]

SMILES: CC(=O)OCC(C)C [isobutyl acetate]
E. coli growth in the presence of isobutyl acetate (E. coli JCL260): unable to grow | extracted into the hexadecane [3]: 97%
